We go through five compounds from US10052318B2, “Glutamate agents in the treatment of mental disorders” (YALE UNIVERSITY, priority 2005, dated 2018).

The subject of data set [1] is glial glutamate uptake transporter. As to conditions: Rothstein et al., Nature 2005; cited from earlier work.
In data set [2] the test system is animal model of Amyotrophic Lateral Sclerosis (ALS). The conditions noted are these: by increasing glutamate transport, L-[3H] glutamate uptake into cortical membrane; Rothstein et al. 2005; cited from earlier work.
A further data set relates to C57BL/6J mice. As to the kind of experiment: Tail suspension test. The format is in vivo. The conditions noted are these: after 7 days, 1 injection/day, versus saline.
Data set [3] deals with transgenic mice expressing cholera toxin subunit in dopamine D1 receptor-expressing limbic cortical cells. The conditions noted are these: cited from earlier work; for perseverative (OCD-like) behaviors: baseline behaviors of the transgenic mice.
Data set [4] has as its system patient with SRI-refractory OCD. The data set can be described thus: Case report two: N-acetylcysteine augmentation of fluvoxamine in SRI-refractory OCD. The format is in vivo, human. The source says: A person presented to our clinic seeking help for persistent and severe OCD symptoms. Diagnosis of OCD was confirmed using the Structured Clinical Interview for DSM-IV Axis I Disorders-Clinician Version. First et al., Structured clinical interview for DSM-IV Axis I Disorders (SCID-I Clinician Version), American Psychiatric Press, Inc., Washington, D.C., 1997. After informed consent, a person was admitted to the Clinical Neuroscience Research Unit of the Abraham Ribicoff Research Facilities (New Haven, Conn.) and treated clinically with an off-label use of NAC augmentation of fluvoxamine. OCD symptoms were followed using weekly Yale-Brown Obsessive-Compulsive Scale (Y-BOCS) ratings. NAC (United States Pharmacia grade and in capsule form) was initiated at a starting dose of 600 mg PO daily and titrated upward to a total daily dose of 3 grams per day over 6 weeks. NAC was continued at the dose of 3 grams per day for an additional seven weeks. Fluvoxamine 300 mg was continued throughout the NAC treatment period. A person remained on the inpatient unit throughout the treatment period and received supportive psychotherapy. […] In fact, they were resistant to implementing behavioral interventions given the past failure of such interventions.

Data set [5] concerns patient with Trichotillomania. The data set can be described thus: Case report: riluzole addition in trichotillomania. The format is in vivo, human.
In data set [6] the test system is patients with anxiety symptoms. As to the kind of experiment: Riluzole addition in patients with anxiety and mood symptoms (HAM-A). The format is in vivo, human.
Data set [7] concerns patient with severe, chronic TTM. The data set can be described thus: Case report one: riluzole in trichotillomania and recurrent major depression. The data set is classed as in vivo, human.
For data set [8], the system named is patients with treatment-resistant depression. The data set can be described thus: Riluzole addition in control group with treatment-resistant depression. As to conditions: control group with treatment-resistant depression alone.

On to `CO/N=C(\C(=O)N[C@@H]1C(=O)N2C(C(=O)O)=C(CSc3nc(=O)c(=O)[nH]n3C)CS[C@H]12)c1csc(N)n1` [Ceftriaxone, ceftriaxone], for which the “upregulation of the glial glutamate transporter” value in data set [1] is recorded as “upregulated the glial glutamate transporter more so than many other drugs”. Besides, in data set [2], the neuroprotection entry is listed as “neuroprotective”. Besides, the “decrease in the immobility time” value in the data set on C57BL/6J mice (C57BL/6J males, 10 animals/group) was roughly 20%. In addition, in the data set with C57BL/6J mice, the bouts of immobility result is “decreased bouts of immobility” and the latency entry was “trend for increased latency”.

On to `NS(=O)(=O)c1cccc2c1c([N+](=O)[O-])cc1nc(O)c(O)nc12` [NBQX], for which, in data set [3], the “perseverative (OCD-like) behaviors” value was “does not affect”. In [3] (transgenic mice given MK-801), the “worsening of OCD-like behaviors induced by MK-801” value is given as “does not attenuate”.

In the case of `CC(=O)N[C@@H](CS)C(=O)O` [NAC, N-acetylcysteine], in data set [4] (NAC 600 mg daily titrated to 3 grams per day over 6 weeks, continued seven weeks, fluvoxamine 300 mg), the Y-BOCS score result is reported as “dramatically decreased”. Moreover, in [4] (NAC up to 3 grams per day), the side effects result is “a few episodes of mild, brief right hand tingling and a single day of xerostomia”. Further, the routine lab monitoring result in data set [4] (over the course of admission) is “no further abnormalities”. Also, the “OCD symptoms at follow-up” value in [4] (two month follow-up visit, same dose of NAC and fluvoxamine) is “remained improved”.

As to `C[C@]12N[C@H](Cc3ccccc31)c1ccccc12` [MK-801], in data set [3], the “perseverative (OCD-like) behaviors” value is reported as “worsen”.

As for `Nc1nc2ccc(OC(F)(F)F)cc2s1` [Riluzole, riluzole], the Trichotillomania symptoms result in data set [5] (A person, riluzole up to 100 mg twice a day) is “cessation of Trichotollomania symptoms”. In addition, the “Reduction in PITS score” value in [5] (after 6 weeks of riluzole addition to Lexapro 30 mg, 50 mg titrated to 100 mg twice a day) was determined as 74%. In addition, the “Reduction in MGH Pulling Scale Score” value in [5] (after 12 weeks of treatment with riluzole) is given as greater than 35%. The “reduction in HAM-A scores post study treatment” value in data set [6] (Subjects P3, P5, P6, P7, P11, P12) is listed as no less than 35%. Moreover, in data set [6] (riluzole 50 mg twice a day), the “HAM-A scores for the group over time” value is given as “significantly improved” and the “tolerability / adverse effects” value is reported as “well tolerated with no serious adverse effects noted”. In data set [6] (thirteen participants, before riluzole), the “Mean Pre-Treatment HAM-A” value is recorded as 18.2+/−6.2. In data set [6] (thirteen participants, riluzole 50 mg twice a day added to existing pharmacotherapy), the “Mean Post-Treatment HAM-A” value is recorded as 12.8+/−7.2. Besides, in data set [7] (72 weeks after initiating riluzole, 100 mg twice a day), the “urges to pull hair at follow-up” value is “minimal and readily ignored”. Further, the “TTM ratings (PITS, MGH Hairpulling Scale)” value in data set [7] (at presentation PITS 23, MGH 17, after up-titration of riluzole) is “corresponding fall”. In addition, in data set [7] (before riluzole, on escitalopram 30 mg daily), the HAM-D at presentation is on record as 26. Further, in [7] (week 16, riluzole titrated from 50 mg twice a day to 200 mg daily), the HAM-D turned out to be 7. In addition, in data set [7] (with up-titration of riluzole to 150 mg and then 200 mg daily), the “urges to pull hair” value is on record as “vanished entirely”. The “HAM-D scores in response to riluzole” value in [8] is “significant improvement”.
